The target in data set [1] is T1, CYP450 3A4 (Homo sapiens, UniProt P08684).
T1 construct: mediated by CYP450 3A4 in human liver microsomes; from tissue; host or cells: human liver microsomes
Kind of data set: In vitro inhibition of CYP3A4: testosterone 6β-hydroxylation in human liver microsomes. Format: biochemical. A general note: Liver microsomes are a subcellular fraction often used to study metabolism.

Data set [2] deals with Caco-2 monolayers. Kind of data set: Bi-directional protease inhibitor transport across Caco-2 monolayers (efflux ratio). Format: in vitro ADME. The settings on record: Caco-2, 100 μM. From the text:
(§1) The transport of experimental protease inhibitors was studied in Caco-2 monolayers grown to confluency.
Background: Caco-2 monolayers are a common model of the intestinal barrier.

Data set [3] is classed as in vivo, NZW rabbits.
Data set [4] concerns wild-type HIV-1. The conditions noted are these: disclosed in WO 02/092595; cited from earlier work.
For data set [5], the system named is large panel of viruses resistant to currently known PIs. The conditions noted are these: disclosed in WO 02/092595; cited from earlier work.
The nature of data set [6]: Bi-directional protease inhibitor transport across Caco-2 monolayers (efflux ratio). Format: in vitro ADME. The conditions noted are these: human, Caco-2, control (no inhibitor), 90 min.
From the text: as §1

The nature of data set [7]: Phase I trial: effect of compound A on single dose pharmacokinetics of saquinavir in healthy subjects. The conditions noted are these: human, in vivo, 1000 mg. The method, then: [drawing 12] was used in a Phase I, open-label, randomized trial in healthy subjects to investigate the steady state pharmacokinetics of compound A, and its effect on the single dose pharmacokinetics of the protease inhibitor saquinavir. Three panels of 8 healthy subjects took a single dose of 1000 mg saquinavir alone, and while taking compound A. The pharmacokinetics of the two intakes of saquinavir was compared. On Day 1 in all panels, all subjects received a single dose of 1000 mg saquinavir. From Day 4 to Day 10, one group of healthy volunteers (Panel 1) received 60 mg compound A b.i.d., one group received 160 mg compound A b.i.d. (Panel 2) and one group took 400 mg compound A b.i.d. (Panel 3). On Day 9, all subjects took a single dose of 1000 mg saquinavir simultaneously with compound A. Full pharmacokinetic profiles of compound A were determined on Day 4, Day 8 and Day 9. Full pharmacokinetic profiles of saquinavir were determined on Day 1 and on Day 9.

Read-outs that look alike come from different tables or passages of the source.

T1 sequence (P08684 whole entry): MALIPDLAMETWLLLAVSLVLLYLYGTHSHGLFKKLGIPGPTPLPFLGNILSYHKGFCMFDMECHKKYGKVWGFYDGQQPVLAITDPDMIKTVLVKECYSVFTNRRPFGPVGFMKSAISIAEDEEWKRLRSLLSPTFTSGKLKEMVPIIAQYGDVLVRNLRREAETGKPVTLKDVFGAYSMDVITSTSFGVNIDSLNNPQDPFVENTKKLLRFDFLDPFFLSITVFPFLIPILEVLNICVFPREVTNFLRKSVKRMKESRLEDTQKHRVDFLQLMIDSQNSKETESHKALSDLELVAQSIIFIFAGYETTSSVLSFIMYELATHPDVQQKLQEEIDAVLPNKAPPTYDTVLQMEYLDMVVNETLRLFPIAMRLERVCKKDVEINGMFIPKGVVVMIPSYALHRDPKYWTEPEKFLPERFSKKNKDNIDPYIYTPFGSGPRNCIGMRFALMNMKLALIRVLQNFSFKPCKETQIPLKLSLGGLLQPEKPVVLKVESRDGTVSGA

Usually IC50 stands for the midpoint of a concentration-inhibition curve. In general, Ki refers to a dissociation constant, usually derived from enzyme kinetics or from competition with a known ligand. As for `CC(C)CN(C[C@@H](O)[C@H](Cc1ccccc1)NC(=O)OCc1cncs1)S(=O)(=O)c1ccc2nc(N)oc2c1` [Compound A, 5-thiazolylmethyl[(1S,2R)-3[[(2-amino-6-benzoxazolyl)sulfonyl]-(2-methylpropyl)amino]-2-hydroxy-1-(phenylmethyl)propyl]carbamate], in data set [1] (testosterone 6β-hydroxylation, read-out: IC50 of CYP3A4 mediated metabolism), the IC50 fell in the range of 0.025 to 0.1 µM. In addition, in data set [1] (testosterone metabolism, non-competitive inhibition model, read-out: inhibition constant Ki of CYP3A4 inhibition), the Ki is 0.065 µM. In addition, in data set [2], the “effect on transport polarity of protease inhibitors (Pgp efflux)” value is “significantly reduce the transport polarity”. Besides, the “effect on plasma level of darunavir in rabbits” value in data set [3] is reported as “increase”. In data set [4], the “in vitro activity against wild-type HIV-1” value is on record as “has in vitro activity”. Besides, the “activity against a large panel of viruses resistant to currently known PIs” value in data set [5] is reported as “has also activity”.

On to `CC(C)CN(C[C@@H](O)[C@H](Cc1ccccc1)NC(=O)O[C@H]1CO[C@H]2OCC[C@H]21)S(=O)(=O)c1ccc2nc(NCCN3CCCC3)sc2c1` [Compound B], for which the efflux ratio at 90 min, 30 μM in data set [6] (compound B 30 μM, read-out: efflux ratio (ER) of compound B) was 171.

For the molecule `CCN1CCC[C@@H]1CNc1nc2ccc(S(=O)(=O)N(CC(C)C)C[C@@H](O)[C@H](Cc3ccccc3)NC(=O)O[C@H]3CO[C@H]4OCC[C@H]43)cc2s1` [Compound C], in data set [6] (compound C 30 μM, read-out: efflux ratio (ER) of compound C), the efflux ratio at 90 min, 30 μM was 119.

In the case of `CC(C)CN(C[C@H](O)[C@@H](Cc1ccccc1)NC(=O)OCc1cncs1)S(=O)(=O)c1ccc2nc(N)oc2c1` [Compound E, 5-thiazolylmethyl[(1R,2S)-3[[(2-amino-6-benzoxazolyl)sulfonyl](2-methylpropyl)amino]-2-hydroxy-1-(phenylmethyl)propyl]carbamate], the “effect on plasma level of darunavir in rabbits” value in data set [3] is recorded as “increase”.

As to `CC(C)(C)NC(=O)[C@@H]1C[C@@H]2CCCC[C@@H]2CN1C[C@@H](O)[C@H](Cc1ccccc1)NC(=O)[C@H](CC(N)=O)NC(=O)c1ccc2ccccc2n1` [saquinavir], the tmax of saquinavir in data set [7] is given as 5.0 (2.0-6.0) h. This molecule also displayed an AUC(0-t) in data set [7] (AUClast of saquinavir) of 515 ± 306 ng·h/mL. In data set [7] (Cmax of saquinavir), this molecule returned a Cmax of 117 ± 77.7 ng/mL. For the same molecule, in data set [7] (tmax of saquinavir), the Tmax amounted to 4.5 h.

The record behind these values is patent publication US8557854B2, “Use of a sulfonamide compound for improving the pharmacokinetics of a drug” (Janssen R&D Ireland, priority 2005, dated 2013).
